One assay addresses T1, Full length Human HDAC8 (Homo sapiens, UniProt Q9BY41).
T1 construct: Full length Human HDAC8; HIS (N); host or cells: baculovirus expression system
T1 sequence (Q9BY41 1-377): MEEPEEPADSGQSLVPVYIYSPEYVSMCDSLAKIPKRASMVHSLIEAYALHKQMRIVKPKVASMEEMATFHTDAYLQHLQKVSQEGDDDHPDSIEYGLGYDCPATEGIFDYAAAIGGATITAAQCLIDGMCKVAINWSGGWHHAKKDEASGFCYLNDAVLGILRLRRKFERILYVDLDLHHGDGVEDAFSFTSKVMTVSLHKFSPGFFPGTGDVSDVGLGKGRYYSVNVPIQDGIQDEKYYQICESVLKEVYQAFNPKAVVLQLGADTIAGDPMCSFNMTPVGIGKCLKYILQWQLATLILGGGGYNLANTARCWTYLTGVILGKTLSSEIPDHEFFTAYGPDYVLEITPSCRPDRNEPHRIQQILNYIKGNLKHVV
The assay can be described thus: Caliper endpoint assay for HDAC enzymatic activity (HDAC8). Type of assay: biochemical. The following applies: in vitro enzymatic, 30 min pre-incubation, 1 μM substrate peptide.

The next assay has as its target T2, Full length Human HDAC6 (Homo sapiens, UniProt Q9UBN7).
T2 construct: Full length Human HDAC6; FLAG (C); host or cells: baculovirus expression system
T2 sequence (Q9UBN7 1-1215): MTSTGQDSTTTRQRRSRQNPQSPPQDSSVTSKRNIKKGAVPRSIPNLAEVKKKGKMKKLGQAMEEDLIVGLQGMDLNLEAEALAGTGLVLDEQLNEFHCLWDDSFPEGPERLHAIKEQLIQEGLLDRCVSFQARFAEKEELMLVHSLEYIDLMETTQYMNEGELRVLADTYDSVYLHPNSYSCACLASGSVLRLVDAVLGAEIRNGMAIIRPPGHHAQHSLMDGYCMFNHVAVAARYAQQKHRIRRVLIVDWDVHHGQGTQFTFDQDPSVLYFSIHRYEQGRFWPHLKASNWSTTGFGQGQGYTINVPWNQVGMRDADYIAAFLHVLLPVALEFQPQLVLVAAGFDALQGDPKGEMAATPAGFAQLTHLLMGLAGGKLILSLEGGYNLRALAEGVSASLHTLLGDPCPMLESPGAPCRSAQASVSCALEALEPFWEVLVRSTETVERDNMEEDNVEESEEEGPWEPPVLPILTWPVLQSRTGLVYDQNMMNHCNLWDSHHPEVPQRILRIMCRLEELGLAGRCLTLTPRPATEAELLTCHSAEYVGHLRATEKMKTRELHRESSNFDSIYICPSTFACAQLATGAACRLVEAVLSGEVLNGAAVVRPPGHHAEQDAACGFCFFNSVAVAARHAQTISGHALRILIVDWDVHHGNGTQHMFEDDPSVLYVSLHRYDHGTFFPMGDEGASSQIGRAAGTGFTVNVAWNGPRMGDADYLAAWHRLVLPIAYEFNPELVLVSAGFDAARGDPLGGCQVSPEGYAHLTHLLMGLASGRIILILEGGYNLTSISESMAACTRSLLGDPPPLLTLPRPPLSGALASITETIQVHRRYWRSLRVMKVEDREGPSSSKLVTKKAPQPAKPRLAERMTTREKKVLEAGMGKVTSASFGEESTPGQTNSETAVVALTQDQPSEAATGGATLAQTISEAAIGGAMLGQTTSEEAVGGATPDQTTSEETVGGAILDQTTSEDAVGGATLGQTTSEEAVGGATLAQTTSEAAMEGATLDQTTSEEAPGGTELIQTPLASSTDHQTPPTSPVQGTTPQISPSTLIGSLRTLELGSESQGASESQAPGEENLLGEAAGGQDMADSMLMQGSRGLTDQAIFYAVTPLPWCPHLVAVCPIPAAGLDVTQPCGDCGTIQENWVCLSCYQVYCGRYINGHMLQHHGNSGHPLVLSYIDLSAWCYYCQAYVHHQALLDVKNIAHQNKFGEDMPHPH
The assay is described as follows: Caliper endpoint assay for HDAC enzymatic activity (HDAC6). The format is biochemical. As to conditions: for IC50: in vitro enzymatic, Caliper endpoint assay, 30 min pre-incubation, 1 μM substrate peptide; for Selectivity (6 v 8): ratio of HDAC8 IC50/HDAC6 IC50.

Structures are written as SMILES.

`CN1CCC2(CCC2N2CCc3cc(C(=O)NO)cc(F)c3C2)CC1` (centres unmarked) [Compound 358, 8-fluoro-2-(7-methyl-7-azaspiro[3.5]nonan-3-yl)-3,4-dihydro-1H-isoquinoline-6-carbohydroxamic acid] gave an IC50 against Full length Human HDAC8 of 1000 to 10000 nM. Also, on Full length Human HDAC6, the IC50 is 1 to 100 nM and the “Selectivity (6 v 8)” value is “IV (IV: >100-1000)”.

On to `CN1CCC2(CC1)CC(CN1CCc3cc(C(=O)NO)cc(F)c3C1)C2` [Compound 469, 8-fluoro-2-[(7-methyl-7-azaspiro[3.5]nonan-2-yl)methyl]-3,4-dihydro-1H-isoquinoline-6-carbohydroxamic acid], for which the IC50 on Full length Human HDAC8 was in the range of 1000 to 10000 nM; on Full length Human HDAC6 it was 1 to 100 nM. Also, the “Selectivity (6 v 8)” value on Full length Human HDAC6 is recorded as “IV (IV: >100-1000)”.

Turning to `O=C(NO)c1cc(F)c2c(c1)CCN(C1CCC3(CCNCC3)C1)C2` (centres unmarked) [Compound 416, 8-fluoro-N-hydroxy-2-(8-azaspiro[4.5]decan-2-yl)-1,2,3,4-tetrahydroisoquinoline-6-carboxamide], the IC50 against Full length Human HDAC8 was in the range of 10000 to 100000 nM; against Full length Human HDAC6 it was 1 to 100 nM. The “Selectivity (6 v 8)” value on Full length Human HDAC6 was “IV (IV: >100-1000)”.

For the compound `CN1CC2(CCC(CN3CCc4cc(C(=O)NO)cc(F)c4C3)CC2)C1` [Compound 465, 8-fluoro-2-[(2-methyl-2-azaspiro[3.5]nonan-7-yl)methyl]-3,4-dihydro-1H-isoquinoline-6-carbohydroxamic acid], the IC50 on Full length Human HDAC8 lay in the range of 10000 to 100000 nM. Also, at Full length Human HDAC6, the IC50 was 1 to 100 nM and the “Selectivity (6 v 8)” value is “V (V: >1000)”.

Turning to `CN1CC2CC(C1)C2CN1CCc2cc(C(=O)NO)cc(F)c2C1` (centres unmarked) [Compound 463, 8-fluoro-2-[(3-methyl-3-azabicyclo[3.1.1]heptan-6-yl)methyl]-3,4-dihydro-1H-isoquinoline-6-carbohydroxamic acid], the IC50 on Full length Human HDAC8 is 10000 to 100000 nM; at Full length Human HDAC6, 1 to 100 nM. Also, the “Selectivity (6 v 8)” value on Full length Human HDAC6 is on record as “IV (IV: >100-1000)”.

`O=C(NO)c1ccc2c(c1)CN1CCC[C@H]21` [Compound 164] returned an IC50 against Full length Human HDAC8 of 1000 to 10000 nM. Further, at Full length Human HDAC6, the IC50 is 1000 to 10000 nM and the “Selectivity (6 v 8)” value was “II (II: >1-10)”.

`O=C(NO)c1cc(F)c2c(c1)CCN([C@H]1CCOC3(CCC3)C1)C2` (single isomer, unassigned) [Compound 445] showed an IC50 against Full length Human HDAC8 of 10000 to 100000 nM. At Full length Human HDAC6, the IC50 lay in the range of 1 to 100 nM and the “Selectivity (6 v 8)” value was “IV (IV: >100-1000)”.

`O=C(NO)c1cc(F)c2c(c1)CN1CCCC[C@H]1C2` [Compound 146]: the IC50 was in the range of 10000 to 100000 nM against Full length Human HDAC8 and 100 to 1000 nM on Full length Human HDAC6. On Full length Human HDAC6, the “Selectivity (6 v 8)” value is “III (III: >10-100)”.

`CC[C@H]1Cc2c(F)cc(C(=O)NO)cc2CN1C1CC(C)(C)C1` (single isomer, unassigned) [Compound 593]: the IC50 fell in the range of 10000 to 100000 nM against Full length Human HDAC8 and 100 to 1000 nM against Full length Human HDAC6. Moreover, on Full length Human HDAC6, the “Selectivity (6 v 8)” value is listed as “IV (IV: >100-1000)”.

Consider `CC[C@@H](c1ccccc1)N1CCc2cc(C(=O)NO)cc(F)c2C1` [Compound 31], for which the IC50 against Full length Human HDAC8 is 1000 to 10000 nM; at Full length Human HDAC6 it was 1 to 100 nM.

Take `CC[C@@H]1Cc2c(F)cc(C(=O)NO)cc2CN1C1CCC1` (single isomer, unassigned) [Compound 596]: the IC50 against Full length Human HDAC8 fell in the range of 10000 to 100000 nM. Also, at Full length Human HDAC6, the IC50 lay within 1 to 100 nM and the “Selectivity (6 v 8)” value is “IV (IV: >100-1000)”.

For the compound `O=C(NO)c1cc(F)c2c(c1)CN1CCC[C@@H]1C2` [Compound 124], the IC50 against Full length Human HDAC8 was 1000 to 10000 nM. At Full length Human HDAC6, the 50% inhibitory concentration (IC50) was 1 to 100 nM and the “Selectivity (6 v 8)” value is on record as “IV (IV: >100-1000)”.

At Full length Human HDAC8, `CN1CCC[C@]2(CC[C@@H]2N2CCc3cc(C(=O)NO)cc(F)c3C2)C1` (single isomer, unassigned) [Compound 365] registered an IC50 of 10000 to 100000 nM. For the same compound, on Full length Human HDAC6, the IC50 is 1 to 100 nM and the “Selectivity (6 v 8)” value is given as “IV (IV: >100-1000)”.

As for `O=C(NO)c1cc(F)c2c(c1)CCN([C@@H]1CCC3(CCC3)C1)C2` (single isomer, unassigned) [Compound 384], the IC50 against Full length Human HDAC8 lay within 10000 to 100000 nM. Further, at Full length Human HDAC6, the IC50 was 1 to 100 nM and the “Selectivity (6 v 8)” value was “V (V: >1000)”.

Regarding `O=C(NO)c1cc(F)c2c(c1)CCN1CCC[C@H]21` [Compound 80], the IC50 on Full length Human HDAC8 lay in the range of 1000 to 10000 nM; against Full length Human HDAC6, 100 to 1000 nM. Also, on Full length Human HDAC6, the “Selectivity (6 v 8)” value is “III (III: >10-100)”.

With `O=C(NO)c1cc(F)c2c(c1)CCN1CCCC[C@@H]21` (single isomer, unassigned) [Compound 139], the IC50 against Full length Human HDAC8 is 1000 to 10000 nM; against Full length Human HDAC6, 1 to 100 nM.

In the case of `CC[C@@H]1Cc2c(F)cc(C(=O)NO)cc2CN1C[C@@H]1CCCCO1` (single isomer, unassigned) [Compound 228], the IC50 on Full length Human HDAC8 is 1000 to 10000 nM. For the same compound, on Full length Human HDAC6, the IC50 was in the range of 1 to 100 nM and the “Selectivity (6 v 8)” value is given as “III (III: >10-100)”.

For the compound `CC(=O)N1CCC2(CCC2N2CCc3cc(C(=O)NO)cc(F)c3C2)CC1` (centres unmarked) [Compound 360, 2-(7-acetyl-7-azaspiro[3.5]nonan-3-yl)-8-fluoro-3,4-dihydro-1H-isoquinoline-6-carbohydroxamic acid], at Full length Human HDAC8, the IC50 was 10000 to 100000 nM. Further, on Full length Human HDAC6, the IC50 was 1 to 100 nM and the “Selectivity (6 v 8)” value is reported as “IV (IV: >100-1000)”.

With `CC[C@H]1CCCN1Cc1ccc(C(=O)NO)cc1F` [Compound 49], the IC50 lay within 1000 to 10000 nM against Full length Human HDAC8 and 100 to 1000 nM at Full length Human HDAC6.

Take `CC[C@H]1Cc2c(F)cc(C(=O)NO)cc2CN1CC1CC2CCC(C1)N2C` (single isomer, unassigned) [Compound 570]: the IC50 against Full length Human HDAC8 was 10000 to 100000 nM. Also, on Full length Human HDAC6, the IC50 lay in the range of 1 to 100 nM and the “Selectivity (6 v 8)” value is recorded as “V (V: >1000)”.

For the compound `O=C(NO)c1cc(F)c2c(c1)C[C@@H]1CCC3(CCCCC3)CN1C2` (single isomer, unassigned) [Compound 137], the IC50 on Full length Human HDAC8 is 10000 to 100000 nM; against Full length Human HDAC6, 100 to 1000 nM.

`O=C(NO)c1cc(F)c2c(c1)CN(C[C@H]1CCCCO1)CC2` (single isomer, unassigned) [Compound 215] returned an IC50 against Full length Human HDAC8 of 100 to 1000 nM. Moreover, at Full length Human HDAC6, the IC50 was in the range of 1 to 100 nM and the “Selectivity (6 v 8)” value is reported as “II (II: >1-10)”.

Take `O=C(NO)c1cc(F)c2c(c1)CCN(C1CC3(C1)CN(C1CC1)C3)C2` [Compound 291, 2-(2-cyclopropyl-2-azaspiro[3.3]heptan-6-yl)-8-fluoro-N-hydroxy-1,2,3,4-tetrahydroisoquinoline-6-carboxamide]: the IC50 on Full length Human HDAC8 was 1000 to 10000 nM; against Full length Human HDAC6, 1 to 100 nM. Also, at Full length Human HDAC6, the “Selectivity (6 v 8)” value is “IV (IV: >100-1000)”.

Take `O=C(NO)c1ccc2c(c1)CN1CCCC[C@@H]1C2` [Compound 143]: the IC50 at Full length Human HDAC8 was in the range of 1000 to 10000 nM. Further, on Full length Human HDAC6, the IC50 was 100 to 1000 nM and the “Selectivity (6 v 8)” value is recorded as “III (III: >10-100)”.

As to `CN1CC2(CCC(N3CCc4cc(C(=O)NO)cc(F)c4C3)CC2)C1` [Compound 427, 8-fluoro-2-(2-methyl-2-azaspiro[3.5]nonan-7-yl)-3,4-dihydro-1H-isoquinoline-6-carbohydroxamic acid], the figures for the IC50 against Full length Human HDAC8 and on Full length Human HDAC6 were 10000 to 100000 nM and 1 to 100 nM, respectively. For the same compound, the “Selectivity (6 v 8)” value on Full length Human HDAC6 is reported as “V (V: >1000)”.

Regarding `O=C(NO)c1cc(F)c2c(c1)CCN(C1CCC3(CC1)COC3)C2` [Compound 425, 8-fluoro-2-(2-oxaspiro[3.5]nonan-7-yl)-3,4-dihydro-1H-isoquinoline-6-carbohydroxamic acid], the IC50 against Full length Human HDAC8 was in the range of 10000 to 100000 nM. On Full length Human HDAC6, the IC50 was in the range of 1 to 100 nM and the “Selectivity (6 v 8)” value was “V (V: >1000)”.

A word on the IC50: it is the concentration needed to halve the response being measured.
